Results from patent US10053428B2, “5-aminotetrahydroquinoline-2-carboxylic acids and their use” (BAYER PHARMA AKTIENGESELLSCHAFT, priority 2012, dated 2018).

What was measured:
[1] = test system: saphenous artery rings; experiment: Vasorelaxant effect in vitro (phenylephrine-contracted saphenous artery rings); set-up: species or system Rabbits; conditions: rabbit saphenous artery rings; read-out: IC50 (concentration reducing phenylephrine-induced contraction by 50%)
Protocol: B-3. Vasorelaxant Effect In Vitro
Rabbits are anaesthetized and sacrificed by intravenous injection of thiopental sodium (about 50 mg/kg) and exsanguinated. The saphenous artery is removed and divided into rings 3 mm wide. The rings are mounted singly on in each case a pair of triangular hooks open at the end and made of 0.3 mm-thick special wire (Remanium®). Each ring is placed under an initial tension in 5 ml organ baths with Krebs-Henseleit solution which is at 37° C., is gassed with carbogen and has the following composition: NaCl 119 mM; KCl 4.8 mM; CaCl2×2 H2O 1 mM; MgSO4×7H2O 1.4 mM; KH2PO4 1.2 mM; NaHCO3 25 mM; glucose 10 mM; bovine serum albumin 0.001%. The force of contraction is detected with Statham UC2 cells, amplified and digitized via A/D converters (DAS-1802 HC, Keithley Instruments, Munich) and recorded in parallel on chart recorders. Contractions are induced by addition of phenylephrine.
After several (generally 4) control cycles, the substance to be investigated is added in each further run in increasing dosage, and the level of the contraction achieved under the influence of the test substance is compared with the level of the contraction reached in the last preceding run. The concentration necessary to reduce the contraction reached in the preceding control by 50% is calculated from this (IC50). The standard application volume is 5 μl. The proportion of DMSO in the bath solution corresponds to 0.1%.

[2] = test system: recombinant guanylate cyclase reporter cell line; experiment: sGC-activating activity in the CHO reporter cell in vitro; format: cell-based; conditions: read-out: MEC (minimum effective concentration)
Protocol: B-2. Action at a Recombinant Guanylate Cyclase Reporter Cell Line
The cellular action of the compounds according to the invention is determined at a recombinant guanylate cyclase reporter cell line, as described in F. Wunder et al., Anal. Biochem. 32, 104-112 (2005).

[3] = molecular target: T1, haem-containing recombinant soluble guanylate cyclase (sGC) (Rattus norvegicus, UniProt P20595); experiment: Stimulation of recombinant soluble guanylate cyclase (sGC) in vitro, haem-containing enzyme; format: biochemical
T1 construct: made in house; host or cells: Sf9 insect cells (baculovirus)
T1 sequence (P20595 1-619): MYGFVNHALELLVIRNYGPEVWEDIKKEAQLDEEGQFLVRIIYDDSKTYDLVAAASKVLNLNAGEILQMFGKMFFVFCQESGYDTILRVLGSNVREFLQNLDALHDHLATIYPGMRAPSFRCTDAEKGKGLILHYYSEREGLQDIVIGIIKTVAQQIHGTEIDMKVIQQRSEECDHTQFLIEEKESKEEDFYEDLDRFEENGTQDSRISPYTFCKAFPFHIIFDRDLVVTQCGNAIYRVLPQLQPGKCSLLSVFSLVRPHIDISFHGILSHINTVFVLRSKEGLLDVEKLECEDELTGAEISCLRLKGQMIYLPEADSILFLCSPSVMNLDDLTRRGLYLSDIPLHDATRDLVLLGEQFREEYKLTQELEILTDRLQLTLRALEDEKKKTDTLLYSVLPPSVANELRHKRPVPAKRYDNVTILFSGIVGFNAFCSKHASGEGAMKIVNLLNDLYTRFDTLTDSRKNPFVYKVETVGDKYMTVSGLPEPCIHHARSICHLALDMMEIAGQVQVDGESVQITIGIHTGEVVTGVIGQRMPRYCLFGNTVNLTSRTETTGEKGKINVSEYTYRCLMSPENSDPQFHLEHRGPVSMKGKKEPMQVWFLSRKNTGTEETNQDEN
T1 sequence (P19686 1-690 partner): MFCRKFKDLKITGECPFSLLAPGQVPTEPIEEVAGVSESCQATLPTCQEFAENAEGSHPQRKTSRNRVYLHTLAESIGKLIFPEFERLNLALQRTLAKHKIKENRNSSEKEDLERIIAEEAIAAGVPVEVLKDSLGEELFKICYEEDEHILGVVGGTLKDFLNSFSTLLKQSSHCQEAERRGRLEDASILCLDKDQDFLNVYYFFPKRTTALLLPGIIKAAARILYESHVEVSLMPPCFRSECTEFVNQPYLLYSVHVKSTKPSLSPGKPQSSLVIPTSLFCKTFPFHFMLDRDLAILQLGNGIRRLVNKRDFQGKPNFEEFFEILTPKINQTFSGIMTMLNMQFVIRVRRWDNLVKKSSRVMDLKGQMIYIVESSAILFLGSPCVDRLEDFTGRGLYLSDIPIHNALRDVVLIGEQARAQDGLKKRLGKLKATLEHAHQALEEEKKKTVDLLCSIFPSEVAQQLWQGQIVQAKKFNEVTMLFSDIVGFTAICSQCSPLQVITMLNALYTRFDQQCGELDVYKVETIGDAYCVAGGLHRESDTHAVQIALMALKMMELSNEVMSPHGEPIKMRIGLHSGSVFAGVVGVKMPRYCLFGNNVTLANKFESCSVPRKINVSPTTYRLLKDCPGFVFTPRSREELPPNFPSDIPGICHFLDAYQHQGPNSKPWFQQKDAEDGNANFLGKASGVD
Protocol: (§1) B-1. Stimulation of Recombinant Soluble Guanylate Cyclase (sGC) In Vitro
(§2) Investigations on the stimulation of recombinant soluble guanylate cyclase (sGC) by the compounds according to the invention with and without sodium nitroprusside, and with and without the haem-dependent sGC inhibitor 1H-1,2,4-oxadiazolo[4,3a]quinoxalin-1-one (ODQ), are carried out by the method described in detail in the following reference: M. Hoenicka, E. M. Becker, H. Apeler, T. Sirichoke, H. Schroeder, R. Gerzer and J.-P. Stasch, “Purified soluble guanylyl cyclase expressed in a baculovirus/Sf9 system: Stimulation by YC-1, nitric oxide, and carbon oxide”, J. Mol. Med 77 (1999), 14-23. The haem-free guanylate cyclase is obtained by adding Tween 20 to the sample buffer (0.5% in the final concentration).
The activation of sGC by a test substance is reported as x-fold stimulation of the basal activity. The result for Example 2 is shown in Table 1A, that for Example 23 in Table 1B and that for Example 39 in Table 1C:
[DEA/NO=2-(N,N-diethylamino)diazenolate 2-oxide; ODQ=1H-1,2,4-oxadiazolo-[4,3a]quinoxalin-1-one].

[4] = molecular target: T2, haem-free recombinant soluble guanylate cyclase (sGC) (Rattus norvegicus, UniProt P20595); experiment: Stimulation of recombinant soluble guanylate cyclase (sGC) in vitro, haem-free enzyme; format: biochemical
T2 construct: made in house; host or cells: Sf9 insect cells (baculovirus)
T2 sequence (P20595 1-619): T1 sequence (P20595 1-619)
T2 sequence (P19686 1-690 partner): T1 sequence (P19686 1-690 partner)
Protocol: as §1, §2
The activation of sGC by a test substance is reported as x-fold stimulation of the basal activity. The result for Example 2 is shown in Table 1A, that for Example 23 in Table 1B and that for Example 39 in Table 1C: […]

[5] = test system: animal model of pulmonary hypertension; conditions: cited from earlier work

O=C(O)CCCCN(CCc1ccccc1OCc1ccc(CCc2ccccc2)cc1)C1CCCc2nc(C(=O)O)ccc21 (single isomer, unassigned; enantiomer 1) [Example 13, 5-{(4-Carboxybutyl)[2-(2-{[4-(2-phenylethyl)benzyl]oxy}phenyl)ethyl]amino}-5,6,7,8-tetrahydroquinoline-2-carboxylic acid (Enantiomer 1)]
IC50 [1]: 0.1 nM
minimal effective concentration [2]: 0.3 nM

Cc1ccc2oc(-c3ccc(COc4ccccc4CCN(CCCCC(=O)O)C4CCCc5nc(C(=O)O)ccc54)cc3)nc2c1 (single isomer, unassigned; enantiomer 2) [Example 2, (+)-5-{(4-Carboxybutyl)[2-(2-{[4-(5-methyl-1,3-benzoxazol-2-yl)benzyl]oxy}phenyl)ethyl]-amino}-5,6,7,8-tetrahydroquinoline-2-carboxylic acid (Enantiomer 2)]
IC50 [1]: 3.6 nM
Effect of combination with the NO donor DEA/NO on sGC stimulation ([3]; combination with DEA/NO): no synergistic effect
Stimulation (x-fold), haem-containing sGC, basal ([3]; test compound 0.01 μM): 13.7 ± 1.9 x-fold
Stimulation (x-fold), haem-containing sGC, +0.01 μM DEA/NO ([3]; test compound 0.01 μM): 20.2 ± 3.8 x-fold
Stimulation (x-fold), haem-containing sGC, +10 μM ODQ ([3]; test compound 0.01 μM): 63.9 ± 12.2 x-fold
Stimulation (x-fold), haem-containing sGC, basal ([3]; test compound 0.1 μM): 31.2 ± 3.5 x-fold
Stimulation (x-fold), haem-containing sGC, +0.01 μM DEA/NO ([3]; test compound 0.1 μM): 42.7 ± 7.2 x-fold
Stimulation (x-fold), haem-containing sGC, +10 μM ODQ ([3]; test compound 0.1 μM): 129.2 ± 18.9 x-fold
Stimulation (x-fold), haem-containing sGC, basal ([3]; test compound 1.0 μM): 40.2 ± 4.0 x-fold
Stimulation (x-fold), haem-containing sGC, +0.01 μM DEA/NO ([3]; test compound 1.0 μM): 56.5 ± 10.5 x-fold
Stimulation (x-fold), haem-containing sGC, +10 μM ODQ ([3]; test compound 1.0 μM): 172.2 ± 26.3 x-fold
Stimulation (x-fold), haem-containing sGC, basal ([3]; test compound 10 μM): 51.6 ± 6.4 x-fold
Stimulation (x-fold), haem-containing sGC, +0.01 μM DEA/NO ([3]; test compound 10 μM): 62.7 ± 11.0 x-fold
Stimulation (x-fold), haem-containing sGC, +10 μM ODQ ([3]; test compound 10 μM): 189.5 ± 28.2 x-fold
minimal effective concentration [2]: 1.1 nM
Stimulation (x-fold), haem-free sGC, basal ([4]; test compound 0.01 μM): 5.2 ± 0.6 x-fold
Stimulation (x-fold), haem-free sGC, basal ([4]; test compound 0.1 μM): 19.9 ± 2.2 x-fold
Stimulation (x-fold), haem-free sGC, basal ([4]; test compound 1.0 μM): 82.7 ± 10.5 x-fold
Stimulation (x-fold), haem-free sGC, basal ([4]; test compound 10 μM): 169.5 ± 23.6 x-fold

O=C(O)CCCCN(CCc1ccccc1OCc1ccc(CCc2ccccc2)cc1)Cc1ccc(C(=O)O)cc1 [BAY 58-2667, cinaciguat]
Duration of action ([5]; inhalative): did not have a sufficient duration of action
Pulmonary arterial pressure after inhalative administration ([5]; microparticles): dose-dependent selective reduction
